Results from patent US20240425464A1, “Substituted Monohydrazides as Potent Antifungal Agents” (University of Kentucky Research Foundation, priority 2023, published 2024).
Values after ≈ are worked out from the molar mass of the structure shown. Where two headings read alike, the source gives them in different places.

How the values were obtained:
Test in all cases: MIC determination by in vitro antifungal assay
Type in all cases: cell-based, Candida auris
[1] = tested on: C. auris AR Bank #381
Experimental: (§1) The antifungal agent amphotericin B (AmB) was purchased from VWR (Radnor PA, USA). AmB was dissolved in DMSO at a final concentration of 5 mg/mL and was stored at −20° C., protected from light. Candida albicans American Type Culture Collection (ATCC) 10231 (strain A), C. albicans ATCC 64124 (B), and C. albicans ATCC MYA-2876 (C) were obtained from Utah State University. C. albicans ATCC 90819 (D), C. albicans ATCC MYA-2310 (E), C. albicans ATCC MYA-1237 (F), C. albicans ATCC MYA-1003 (G), Candida glabrata ATCC 2001 (H), Candida krusei ATCC 6258 (I), Candida parapsilosis ATCC 22019 (J), Cryptococcus neoformans ATCC MYA-895 (M), Aspergillus terreus ATCC MYA-3633 (N), and Aspergillus flavus ATCC MYA-3631 (0) were obtained from the American Type Culture Collection (ATCC; Manassas, VA, USA). Aspergillus nidulans ATCC 38163 (P) was obtained from University of Kentucky. Clinically derived Aspergillus fumigatus NRRL 163 (Q), A. fumigatus NRRL 5109 (R), and A. fumigatus NRRL 6113 (S) were obtained from Northern Regional Research Laboratory (NRRL). Candida auris 384 (K), C. auris 390 (L), and fungal strains 381-400 (including 10 C. auris (AR Bank #381-390), 3 Candida duobushaemulonii (AR Bank #391, AR Bank #392, and AR Bank #394), 2 Candida haemulonii (AR Bank #393 and AR Bank #395), 1 Kodameae ohmeri (AR Bank #396), 1 C. krusei (AR Bank #397), 1 Candida lusitaniae (AR Bank #398), and 2 Saccharomyces cerevisiae strains (AR Bank #399 and AR Bank #400)) were part of a larger fungal library from the AR Bank maintained by the Centers for Disease Control and Prevention (CDC; Atlanta, GA, USA). Filamentous fungi and yeasts were cultivated at 35° C. in RPMI 1640 medium (with L-glutamine, without sodium bicarbonate, Sigma-Aldrich, St. Louis, MO) buffered to a pH of 7.0 with 0.165 M morpholinepropanesulfonic acid (MOPS) buffer (Sigma-Aldrich). For cytotoxicity assays, HepG2 and the mouse macrophage cell line J774A.1 were obtained from University of Kentucky. The human embryonic kidney cell line, HEK-293, was bought from the ATCC. Mammalian cells were grown in Dulbecco's Modified Eagle's Medium (DMEM) (from VWR) with 10% fetal bovine serum (FBS) (from VWR) and 1% Pen/Strep (from ATCC). Cell lines were cultured at 37° C. with 5% CO2 and passaged by trypsinization with 0.05% trypsin: 0.53 mM EDTA (from Sigma-Aldrich).
(§2) From the actively growing yeast culture, 100 µL were then transferred to 900 μL of RPMI 1640 medium and re-adjusted to achieve OD600 of 0.12 (˜1×10^6 CFU/mL). The cell suspension was further diluted to achieve 1:100 in RPMI 1640 medium.

[2] = tested on: C. auris AR Bank #382
Experimental: as §1, §2

[3] = tested on: C. auris AR Bank #385
Experimental: as §1, §2

[4] = tested on: C. auris AR Bank #388
Experimental: as §1, §2

[5] = tested on: C. auris AR Bank #389
Experimental: as §1, §2

[6] = tested on: C. auris AR Bank #386
Experimental: as §1, §2

[7] = tested on: C. auris AR Bank #383
Experimental: as §1, §2

[8] = tested on: C. auris AR Bank #387
Experimental: as §1, §2

[9] = Candidozyma auris, C. auris AR Bank #381, read-out: MIC
[10] = Candidozyma auris, C. auris AR Bank #382, read-out: MIC
[11] = Candidozyma auris, C. auris AR Bank #385, read-out: MIC
[12] = Candidozyma auris, C. auris AR Bank #388, read-out: MIC
[13] = Candidozyma auris, C. auris AR Bank #389, read-out: MIC
[14] = Candidozyma auris, C. auris AR Bank #386, read-out: MIC
[15] = Candidozyma auris, C. auris AR Bank #383, read-out: MIC
[16] = Candidozyma auris, C. auris AR Bank #387, read-out: MIC
[17] = C. auris AR Bank # 381 (Table 2B)
[18] = C. auris AR Bank # 382 (Table 2B)
[19] = C. auris AR Bank # 385 (Table 2B)
[20] = C. auris AR Bank # 388 (Table 2B)
[21] = C. auris AR Bank # 389 (Table 2B)
[22] = C. auris AR Bank # 386 (Table 2B)
[23] = C. auris AR Bank # 383 (Table 2B)
[24] = C. auris AR Bank # 387 (Table 2B)
[25] = Candidozyma auris, C. auris AR Bank # 381 (Table 2B), read-out: MIC
[26] = Candidozyma auris, C. auris AR Bank # 382 (Table 2B), read-out: MIC
[27] = Candidozyma auris, C. auris AR Bank # 385 (Table 2B), read-out: MIC
[28] = Candidozyma auris, C. auris AR Bank # 388 (Table 2B), read-out: MIC
[29] = Candidozyma auris, C. auris AR Bank # 389 (Table 2B), read-out: MIC
[30] = Candidozyma auris, C. auris AR Bank # 386 (Table 2B), read-out: MIC
[31] = Candidozyma auris, C. auris AR Bank # 383 (Table 2B), read-out: MIC
[32] = Candidozyma auris, C. auris AR Bank # 387 (Table 2B), read-out: MIC

Row | SMILES | MIC [1, 9] [µg/mL] | MIC [2, 10] [µg/mL] | MIC [3, 11] [µg/mL] | MIC [4, 12] [µg/mL] | MIC [5, 13] [µg/mL] | MIC [6, 14] [µg/mL] | MIC [7, 15] [µg/mL] | MIC [8, 16] [µg/mL] | MIC [1, 17] [μg/mL^−1] | MIC [2, 18] [μg/mL^−1] | MIC [3, 19] [μg/mL^−1] | MIC [4, 20] [μg/mL^−1] | MIC [5, 21] [μg/mL^−1] | MIC [6, 22] [μg/mL^−1] | MIC [7, 23] [μg/mL^−1] | MIC [8, 24] [μg/mL^−1] | MIC [1, 25] [µg/mL] | MIC [2, 26] [µg/mL] | MIC [3, 27] [µg/mL] | MIC [4, 28] [µg/mL] | other results
1 | O=C(NNc1ccc(F)cc1F)c1ccccn1 [Compound 2g] | 0.49 (≈ 1.97 µM) | 0.49 (≈ 1.97 µM) | 0.49 (≈ 1.97 µM) | 0.12 (≈ 0.482 µM) | 0.24 (≈ 0.963 µM) | 0.49 (≈ 1.97 µM) | 0.49 (≈ 1.97 µM) | 0.12 (≈ 0.482 µM) |  |  |  |  |  |  |  |  |  |  |  |  | 
2 | O=C(NNc1cc(F)ccc1F)c1ccccn1 [Compound 2h] | 1.95 (≈ 7.82 µM) | 0.24 (≈ 0.963 µM) | 0.49 (≈ 1.97 µM) | 0.49 (≈ 1.97 µM) | 0.49 (≈ 1.97 µM) | 0.12 (≈ 0.482 µM) | 0.49 (≈ 1.97 µM) | 0.49 (≈ 1.97 µM) |  |  |  |  |  |  |  |  |  |  |  |  | 
3 | O=C(NNc1cc(F)cc(F)c1)c1ccccn1 [Compound 2i] | 0.98 (≈ 3.93 µM) | 0.12 (≈ 0.482 µM) | 0.24 (≈ 0.963 µM) | 0.24 (≈ 0.963 µM) | 0.24 (≈ 0.963 µM) | ≤ 0.06 | 0.24 (≈ 0.963 µM) | 0.24 (≈ 0.963 µM) |  |  |  |  |  |  |  |  |  |  |  |  | 
4 | O=C(NNc1cc(Cl)cc(Cl)c1)c1ccccn1 [Compound 2j] | 3.9 (≈ 13.8 µM) | 0.98 (≈ 3.47 µM) | 1.95 (≈ 6.91 µM) | 3.9 (≈ 13.8 µM) | 1.95 (≈ 6.91 µM) | 1.98 (≈ 7.02 µM) | 1.95 (≈ 6.91 µM) | 0.98 (≈ 3.47 µM) |  |  |  |  |  |  |  |  |  |  |  |  | 
5 | COc1cccc(NNC(=O)c2ccc(F)cn2)c1 [Compound 3c] |  |  |  |  |  |  |  |  | 0.98 | 0.49 | 0.49 | 0.98 | 0.98 | 0.98 | 0.98 | 0.98 |  |  |  |  | 
6 | O=C(NNc1ccc(F)cc1)c1ccc(F)cn1 [Compound 3d] |  |  |  |  |  |  |  |  | 1.95 | 0.98 | 0.98 | 1.95 | 1.95 | 1.95 | 1.95 | 0.98 |  |  |  |  | 
7 | O=C(NNc1ccc(Cl)cc1)c1ccc(F)cn1 [Compound 3e] |  |  |  |  |  |  |  |  | 7.8 | 7.8 | 1.95 | 7.8 | 7.8 | 7.8 | 3.9 | 7.8 |  |  |  |  | 
8 | O=C(NNc1ccc(F)cc1F)c1ccc(F)cn1 [Compound 3g] |  |  |  |  |  |  |  |  |  |  |  |  |  |  |  |  | 1.95 (≈ 7.3 µM) | 1.95 (≈ 7.3 µM) | 0.49 (≈ 1.83 µM) | 1.95 (≈ 7.3 µM) | MIC [5, 29]: 1.95 µg/mL (≈ 7.3 µM); MIC [6, 30]: 1.95 µg/mL (≈ 7.3 µM); MIC [7, 31]: 1.95 µg/mL (≈ 7.3 µM); MIC [8, 32]: 0.98 µg/mL (≈ 3.67 µM)
9 | O=C(NNc1ccc(F)cc1)c1ccc(Br)cn1 [Compound 4d] |  |  |  |  |  |  |  |  |  |  |  |  |  |  |  |  | 1.95 (≈ 6.29 µM) | 1.95 (≈ 6.29 µM) | 1.95 (≈ 6.29 µM) | 1.95 (≈ 6.29 µM) | MIC [5, 29]: 3.9 µg/mL (≈ 12.6 µM); MIC [6, 30]: 3.9 µg/mL (≈ 12.6 µM); MIC [7, 31]: 7.8 µg/mL (≈ 25.2 µM); MIC [8, 32]: 3.9 µg/mL (≈ 12.6 µM)
10 | O=C(NNc1ccc(F)cc1)c1cccc(F)n1 [Compound 5d] |  |  |  |  |  |  |  |  |  |  |  |  |  |  |  |  | 0.98 (≈ 3.93 µM) | 0.98 (≈ 3.93 µM) | 0.49 (≈ 1.97 µM) | 0.49 (≈ 1.97 µM) | MIC [5, 29]: 0.98 µg/mL (≈ 3.93 µM); MIC [6, 30]: 0.98 µg/mL (≈ 3.93 µM); MIC [7, 31]: 1.95 µg/mL (≈ 7.82 µM); MIC [8, 32]: 0.49 µg/mL (≈ 1.97 µM)
